This passage reports Ki results from patent US8394952B2 (Vertex Pharmaceuticals Incorporated, priority 2006, dated 2013).

SMILES strings stand for the structures. “And” between values parts separate entries of the source, which are not always exact repeats. Equal values may be shown once.

As usually defined, the Ki is the equilibrium dissociation constant of an inhibitor or competing ligand from its target. Higher therefore signals a looser hold on the target.

Sequence of Plk1 (P53350 20-338): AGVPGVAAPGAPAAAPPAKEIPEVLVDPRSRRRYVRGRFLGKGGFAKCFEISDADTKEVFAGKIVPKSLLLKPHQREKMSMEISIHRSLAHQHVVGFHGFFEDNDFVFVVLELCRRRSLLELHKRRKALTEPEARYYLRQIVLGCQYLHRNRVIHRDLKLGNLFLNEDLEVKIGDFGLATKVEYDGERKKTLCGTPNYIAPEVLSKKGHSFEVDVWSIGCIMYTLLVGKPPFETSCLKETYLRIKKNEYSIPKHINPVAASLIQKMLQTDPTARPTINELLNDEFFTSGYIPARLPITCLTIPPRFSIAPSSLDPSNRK

This experiment addresses Plk1 (Homo sapiens, UniProt P53350). The experiment can be described thus: biochemical.
Compound `COc1cc(C(=O)NC2CCOCC2)ccc1Nc1ncc2c(n1)N(C1CCCC1)CC1(CC1)C(=O)N2C` [Compound I-177, 4-(9′-cyclopentyl-5′-methyl-6′-oxo-5′,6′,8′,9′-tetrahydrospiro[cyclopropane-1,7′-pyrimido[4,5-b][1,4]diazepine]-2′-ylamino)-3-methoxy-N-(tetrahydro-2H-pyran-4-yl)benzamide] displayed an inhibitory constant (Ki) of under 10 nM. Under `COc1cc(C(=O)NC2CC2)ccc1Nc1ncc2c(n1)N(C1CCCC1)CC1(CC1)C(=O)N2C` [Compound I-178, 4-(9′-cyclopentyl-5′-methyl-6′-oxo-5′,6′,8′,9′-tetrahydrospiro[cyclopropane-1,7′-pyrimido[4,5-b][1,4]diazepine]-2′-ylamino)-N-cyclopropyl-3-methoxybenzamide] stands under 10 nM; under `COc1cc(C(=O)N[C@H]2CCOC2)ccc1Nc1ncc2c(n1)N(C1CCCC1)CC1(CC1)C(=O)N2C` [Compound I-179, (S)-4-(9′-cyclopentyl-5′-methyl-6′-oxo-5′,6′,8′,9′-tetrahydrospiro[cyclopropane-1,7′-pyrimido[4,5-b][1,4]diazepine]-2′-ylamino)-3-methoxy-N-(tetrahydrofuran-3-yl)benzamide], under 10 nM. In turn, `CNC(=O)c1ccc(Nc2ncc3c(n2)N([C@H]2CCOC2)CC(C)(C)C(=O)N3C)c(OC)c1` [Compound I-180, 4-(6,7,8,9-tetrahydro-9-((S)-tetrahydrofuran-3-yl)-5,7,7-trimethyl-6-oxo-5H-pyrimido[4,5-b][1,4]diazepin-2-ylamino)-3-methoxy-N-methylbenzamide] yielded an inhibition constant (Ki) of under 10 nM.

Consider `CNC(=O)c1ccc(Nc2ncc3c(n2)N([C@@H]2CCOC2)CC(C)(C)C(=O)N3C)c(OC)c1` [Compound I-181, 4-(6,7,8,9-tetrahydro-9-((R)-tetrahydrofuran-3-yl)-5,7,7-trimethyl-6-oxo-5H-pyrimido[4,5-b][1,4]diazepin-2-ylamino)-3-methoxy-N-methylbenzamide], for which the Ki was under 10 nM. For the compound `COc1cc(C(=O)NC2CCOCC2)ccc1Nc1ncc2c(n1)N(C1CCCC1)C[C@@H](C)C(=O)N2C` [Compound I-182, (R)-4-(9-cyclopentyl-5,7-dimethyl-6-oxo-6,7,8,9-tetrahydro-5H-pyrimido[4,5-b][1,4]diazepin-2-ylamino)-3-methoxy-N-(tetrahydro-2H-pyran-4-yl)benzamide], the Ki was under 10 nM. In turn, `COc1cc(C(=O)N[C@H]2CCOC2)ccc1Nc1ncc2c(n1)N(C1CCCC1)C[C@@H](C)C(=O)N2C` [Compound I-183, 4-((R)-9-cyclopentyl-5,7-dimethyl-6-oxo-6,7,8,9-tetrahydro-5H-pyrimido[4,5-b][1,4]diazepin-2-ylamino)-3-methoxy-N—((S)-tetrahydrofuran-3-yl)benzamide] registered a Ki of under 10 nM. Take `COc1cc(C(=O)NC2CC2)ccc1Nc1ncc2c(n1)N(C1CCCC1)C[C@@H](C)C(=O)N2C` [Compound I-184, (R)-4-(9-cyclopentyl-5,7-dimethyl-6-oxo-6,7,8,9-tetrahydro-5H-pyrimido[4,5-b][1,4]diazepin-2-ylamino)-N-cyclopropyl-3-methoxybenzamide]: the inhibition constant Ki is under 10 nM.

For `COc1cc(C(=O)NC2CCCC2)ccc1Nc1ncc2c(n1)N(C1CCCC1)C[C@@H](C)C(=O)N2C` [Compound I-185, (R)—N-cyclopentyl-4-(9-cyclopentyl-5,7-dimethyl-6-oxo-6,7,8,9-tetrahydro-5H-pyrimido[4,5-b][1,4]diazepin-2-ylamino)-3-methoxybenzamide], the Ki is under 10 nM.

`COc1cc(C(=O)NC2CCC2)ccc1Nc1ncc2c(n1)N(C1CCCC1)C[C@@H](C)C(=O)N2C` [Compound I-186, (R)—N-cyclobutyl-4-(9-cyclopentyl-5,7-dimethyl-6-oxo-6,7,8,9-tetrahydro-5H-pyrimido[4,5-b][1,4]diazepin-2-ylamino)-3-methoxybenzamide] registered an inhibitory constant (Ki) of under 10 nM.

For the compound `COc1cc(C(=O)N[C@@H]2CCOC2)ccc1Nc1ncc2c(n1)N(C1CCCC1)CC(C)(C)C(=O)N2C` [Compound I-187, (R)-4-(9-cyclopentyl-5,7,7-trimethyl-6-oxo-6,7,8,9-tetrahydro-5H-pyrimido[4,5-b][1,4]diazepin-2-ylamino)-3-methoxy-N-(tetrahydrofuran-3-yl)benzamide], the inhibition constant Ki is under 10 nM.

The compound `COc1ccccc1Nc1ncc2c(n1)N(C1CCCC1)CCC(=O)N2C` [Compound I-188, 9-cyclopentyl-2-(2-methoxyphenylamino)-5-methyl-8,9-dihydro-5H-pyrimido[4,5-b][1,4]diazepin-6(7H)-one] returned a Ki of 10 to 100 nM.

`CCC1CN(C2CCCC2)c2nc(Nc3ccc(C(=O)NC)cc3OC)ncc2N(C)C1=O` (stereo not shown) [Compound I-190, 4-(9-cyclopentyl-7-ethyl-5-methyl-6-oxo-6,7,8,9-tetrahydro-5H-pyrimido[4,5-b][1,4]diazepin-2-ylamino)-3-methoxy-N-methylbenzamide] yielded a Ki of under 10 nM. In turn, `CNC(=O)c1ccc(Nc2ncc3c(n2)N(C2CC4CCC2C4)CC(C)(C)C(=O)N3C)c(OC)c1` (stereo not shown) [Compound I-191, 4-(9-(bicyclo[2.2.1]heptan-2-yl)-5,7,7-trimethyl-6-oxo-6,7,8,9-tetrahydro-5H-pyrimido[4,5-b][1,4]diazepin-2-ylamino)-3-methoxy-N-methylbenzamide] returned an inhibition constant (Ki) of under 10 nM. `CNC(=O)c1ccc(Nc2ncc3c(n2)N(CC2CNCCO2)CC(C)(C)C(=O)N3C)c(OC)c1` (stereo not shown) [Compound I-192, 3-methoxy-N-methyl-4-(5,7,7-trimethyl-9-(morpholin-2-ylmethyl)-6-oxo-6,7,8,9-tetrahydro-5H-pyrimido[4,5-b][1,4]diazepin-2-ylamino)benzamide]: the inhibitory constant (Ki) was < 10 nM and 10 to 100 nM. `COc1cc(C(=O)NCc2ccco2)ccc1Nc1ncc2c(n1)N(C1CCCC1)CC(C)(C)C(=O)N2C` [Compound I-193, 4-(9-cyclopentyl-5,7,7-trimethyl-6-oxo-6,7,8,9-tetrahydro-5H-pyrimido[4,5-b][1,4]diazepin-2-ylamino)-N-(furan-2-ylmethyl)-3-methoxybenzamide] yielded an inhibition constant (Ki) of under 10 nM. The compound `COc1cc(C(=O)NCC2CCCO2)ccc1Nc1ncc2c(n1)N(C1CCCC1)CC(C)(C)C(=O)N2C` (stereo not shown) [Compound I-194, 4-(9-cyclopentyl-5,7,7-trimethyl-6-oxo-6,7,8,9-tetrahydro-5H-pyrimido[4,5-b][1,4]diazepin-2-ylamino)-3-methoxy-N-((tetrahydrofuran-2-yl)methyl)benzamide] showed a Ki of under 10 nM.

Compound `COc1cc(C(=O)NCC2CCOCC2)ccc1Nc1ncc2c(n1)N(C1CCCC1)CC(C)(C)C(=O)N2C` [Compound I-195, 4-(9-cyclopentyl-5,7,7-trimethyl-6-oxo-6,7,8,9-tetrahydro-5H-pyrimido[4,5-b][1,4]diazepin-2-ylamino)-3-methoxy-N-((tetrahydrofuran-2H-pyran-4-yl)methyl)benzamide] came in with an inhibition constant (Ki) of under 10 nM. In turn, `COc1cc(C(=O)NCC2CCCCC2)ccc1Nc1ncc2c(n1)N(C1CCCC1)CC(C)(C)C(=O)N2C` [Compound I-196, N-(cyclohexylmethyl)-4-(9-cyclopentyl-5,7,7-trimethyl-6-oxo-6,7,8,9-tetrahydro-5H-pyrimido[4,5-b][1,4]diazepin-2-ylamino)-3-methoxybenzamide] registered an inhibitory constant (Ki) of under 10 nM. In turn, `COCCNC(=O)c1ccc(Nc2ncc3c(n2)N(C2CCCC2)CC(C)(C)C(=O)N3C)c(OC)c1` [Compound I-197, 4-(9-cyclopentyl-5,7,7-trimethyl-6-oxo-6,7,8,9-tetrahydro-5H-pyrimido[4,5-b][1,4]diazepin-2-ylamino)-3-methoxy-N-(2-methoxyethyl)benzamide] yielded an inhibitory constant (Ki) of under 10 nM.

For the compound `COCCCNC(=O)c1ccc(Nc2ncc3c(n2)N(C2CCCC2)CC(C)(C)C(=O)N3C)c(OC)c1` [Compound I-198, 4-(9-cyclopentyl-5,7,7-trimethyl-6-oxo-6,7,8,9-tetrahydro-5H-pyrimido[4,5-b][1,4]diazepin-2-ylamino)-3-methoxy-N-(3-methoxypropyl)benzamide], the inhibitory constant (Ki) was under 10 nM. With `COc1cc(C(=O)N2CCOCC2)ccc1Nc1ncc2c(n1)N(C1CCCC1)CC(C)(C)C(=O)N2C` [Compound I-199, 9-cyclopentyl-2-(2-methoxy-4-(morpholine-4-carbonyl)phenylamino)-5,7,7-trimethyl-8,9-dihydro-5H-pyrimido[4,5-b][1,4]diazepin-6(7H)-one], the Ki was under 10 nM.

The compound `COc1cc(C(=O)Nc2ccccc2)ccc1Nc1ncc2c(n1)N(C1CCCC1)CC(C)(C)C(=O)N2C` [Compound I-200, 4-(9-cyclopentyl-5,7,7-trimethyl-6-oxo-6,7,8,9-tetrahydro-5H-pyrimido[4,5-b][1,4]diazepin-2-ylamino)-3-methoxy-N-phenylbenzamide] yielded a Ki of under 10 nM. `COc1cc(C(=O)NCc2ccccc2)ccc1Nc1ncc2c(n1)N(C1CCCC1)CC(C)(C)C(=O)N2C` [Compound I-201] registered an inhibitory constant (Ki) of under 10 nM. `COc1cc(C(=O)NCc2cccnc2)ccc1Nc1ncc2c(n1)N(C1CCCC1)CC(C)(C)C(=O)N2C` [Compound I-202, 4-(9-cyclopentyl-5,7,7-trimethyl-6-oxo-6,7,8,9-tetrahydro-5H-pyrimido[4,5-b][1,4]diazepin-2-ylamino)-3-methoxy-N-(pyridin-3-ylmethyl)benzamide] gave a Ki of under 10 nM. Regarding `COc1cc(C(=O)NCCc2ccccc2)ccc1Nc1ncc2c(n1)N(C1CCCC1)CC(C)(C)C(=O)N2C` [Compound I-203, 4-(9-cyclopentyl-5,7,7-trimethyl-6-oxo-6,7,8,9-tetrahydro-5H-pyrimido[4,5-b][1,4]diazepin-2-ylamino)-3-methoxy-N-phenethylbenzamide], the inhibitory constant (Ki) was under 10 nM. `COc1cc(C(=O)N[C@H]2CC[C@H](O)CC2)ccc1Nc1ncc2c(n1)N(C1CCCC1)CC(C)(C)C(=O)N2C` [Compound I-204, 4-(9-cyclopentyl-5,7,7-trimethyl-6-oxo-6,7,8,9-tetrahydro-5H-pyrimido[4,5-b][1,4]diazepin-2-ylamino)-N-((1R,4R)-4-hydroxycyclohexyl)-3-methoxybenzamide] came in with a Ki of under 10 nM. Compound `COc1cc(C(=O)NCC2(O)CCCCC2)ccc1Nc1ncc2c(n1)N(C1CCCC1)CC(C)(C)C(=O)N2C` [Compound I-205, 4-(9-cyclopentyl-5,7,7-trimethyl-6-oxo-6,7,8,9-tetrahydro-5H-pyrimido[4,5-b][1,4]diazepin-2-ylamino)-N-((1-hydroxycyclohexyl)methyl)-3-methoxy-benzamide] returned a Ki of under 10 nM.
